Test results: ChEMBL document CHEMBL1201862, “PubChem BioAssay data set” (2004)
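All cell lines were grown in 96-well plates and treated with compound for 48 hours. Here, GI50 denotes the concentration required for 50% inhibition of growth.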 Active and inactive are the calls of the source. Rule as the data show it: active = GI50 up to about 1.1 µM and inactive = higher.

Key:
Assay in all cases: DTP human tumour cell line panel, 48 h
[1] = system: MDA-N
[2] = system: SF-539
[3] = system: EKVX
[4] = system: CCRF-CEM
[5] = system: MOLT-4
[6] = system: NCI-H23
[7] = system: KM12
[8] = system: U-251
[9] = system: DU-145
[10] = system: SW-620
[11] = system: RXF 393
[12] = system: SNB-19
[13] = system: MDA-MB-435
[14] = system: UO-31
[15] = system: SF-295
[16] = system: SN12C
[17] = system: A498
[18] = system: SK-MEL-28
[19] = system: SR

Measured: GI50

CN(CCc1ccc(Br)cc1)CCN1CCCCC1
inactive: [1] 22.6 µM | [2] 27.3 µM | [3] > 100 µM | [4] 16.4 µM | [5] 31 µM | [6] 31.9 µM | [7] 21.1 µM | [8] 39.5 µM | [9] 99.5 µM | [10] 33.5 µM | [11] 36.4 µM | [12] > 100 µM | [13] 26.4 µM | [14] 36.1 µM | [15] 25.1 µM | [16] 81.1 µM | [17] 21 µM | [18] 20.4 µM

Cc1ccc2nc(CN(CCO)CCO)cc(=O)n2c1
inactive: [1] > 100 µM | [2] > 100 µM | [3] > 100 µM | [4] > 100 µM | [5] > 100 µM | [6] > 100 µM | [7] > 100 µM | [8] > 100 µM | [9] > 100 µM | [10] > 100 µM | [12] > 100 µM | [19] > 100 µM | [13] > 100 µM | [14] > 100 µM | [15] > 100 µM | [16] > 100 µM | [18] > 100 µM

CCC(=O)/C(=C\I)c1ccccc1
inactive: [1] 2.85 µM | [2] 18.1 µM | [3] 19.2 µM | [4] 2.74 µM | [5] 2.23 µM | [6] 3.71 µM | [7] 6.56 µM | [8] 2.23 µM | [9] 7.19 µM | [10] 1.58 µM | [11] 1.52 µM | [12] 15.3 µM | [13] 3.36 µM | [14] 2.05 µM | [15] 18.5 µM | [16] 2.16 µM | [17] 18.1 µM | [18] 2.7 µM

CCOC(=O)/C(C(=O)Nc1cccc(C(F)(F)F)c1)=C(/N)N1CCOCC1
inactive: [1] > 100 µM | [2] > 100 µM | [3] > 100 µM | [4] > 100 µM | [5] > 100 µM | [6] > 100 µM | [7] > 100 µM | [8] > 100 µM | [9] > 100 µM | [10] > 100 µM | [11] > 100 µM | [12] > 100 µM | [13] > 100 µM | [15] > 100 µM | [16] > 100 µM | [17] > 100 µM | [18] > 100 µM

CC(=O)NC(C)c1ccc(/N=N/N2CCCC2)cc1 (stereo not drawn)
inactive: [1] > 100 µM | [2] > 100 µM | [3] > 100 µM | [4] > 100 µM | [6] > 100 µM | [7] > 100 µM | [8] > 100 µM | [9] > 100 µM | [10] > 100 µM | [11] > 100 µM | [12] > 100 µM | [13] > 100 µM | [14] > 100 µM | [15] > 100 µM | [16] > 100 µM | [17] > 100 µM | [18] > 100 µM

Nc1cc(O)c2c(c1O)C(=O)C=CC2=O
inactive: [1] 6.1 µM | [2] 18.9 µM | [3] 17.9 µM | [4] 2.19 µM | [5] 4.66 µM | [6] 8.99 µM | [7] 19.6 µM | [8] 18.2 µM | [9] 18.2 µM | [10] 4.33 µM | [11] 6.93 µM | [12] 23.8 µM | [13] 6.1 µM | [14] 10.9 µM | [15] 17.3 µM | [16] 16.1 µM | [17] 22.2 µM | [18] 17.7 µM

CCOC(=O)CNC(=O)CNC(=O)CNC(=O)CNNc1c(OCc2ccccc2)c(=O)c1=O
inactive: [1] > 100 µM | [3] > 100 µM | [4] > 100 µM | [5] > 100 µM | [6] > 100 µM | [7] > 100 µM | [8] > 100 µM | [9] > 100 µM | [10] > 100 µM | [11] > 100 µM | [12] > 100 µM | [13] > 100 µM | [14] > 100 µM | [16] > 100 µM | [17] > 100 µM | [18] > 100 µM

COc1nc(=O)n(C2CC(F)C(CO)O2)cc1C (stereo not drawn)
inactive: [1] > 100 µM | [2] > 100 µM | [3] > 100 µM | [4] > 100 µM | [5] > 100 µM | [6] > 100 µM | [7] > 100 µM | [8] > 100 µM | [9] > 100 µM | [10] > 100 µM | [12] > 100 µM | [19] > 100 µM | [13] > 100 µM | [14] > 100 µM | [15] > 100 µM | [16] > 100 µM | [18] > 100 µM
